Laboratory results: patent publication US11420958B2, “Aryl and heteroaryl substituted indole compounds” (BRISTOL-MYERS SQUIBB COMPANY, priority 2017, dated 2022)

Legend:
Assay type in all cases: cell-based
[1] = biological target: human TLR7 (Homo sapiens (Human), UniProt Q9NYK1); test: TLR7 inhibition reporter assay (HEK-Blue, SEAP); conditions: HEK-Blue cells overexpressing human TLR7, gardiquimod 7.5 μM stimulation
Method: (§1) TLR7/8/9 Inhibition Reporter Assays
(§2) HEK-Blue™-cells (Invivogen) overexpressing human TLR7, TLR8 or TLR9 receptors were used for screening inhibitors of these receptors using an inducible SEAP (secreted embryonic alkaline phosphatase) reporter gene under the control of the IFN-β minimal promoter fused to five NF-κc Band AP-1-binding sites. Briefly, cells are seeded into Greiner 384 well plates (15000 cells per well for TLR7, 20,000 for TLR8 and 25,000 for TLR9) and then treated with test compounds in DMSO to yield a final dose response concentration range of 0.05 nM-50 μM. After a 30 minute compound pre-treatment at room temperature, the cells are then stimulated with a TLR7 ligand (gardiquimod at a final concentration of 7.5 μM), TLR8 ligand (R848 at a final concentration of 15.9 μM) or TLR9 ligand (ODN2006 at final concentration of 5 nM) to activate NF-κB and AP-1 which induce the production of SEAP. After a 22 hour incubation at 37° C., 5% CO2, SEAP levels are determined with the addition of HEK-Bue™ Detection reagent (Invivogen), a cell culture medium that allows for detection of SEAP, according to manufacturer's specifications. The percent inhibition is determined as the % reduction in the HEK-Blue signal present in wells treated with agonist plus DMSO alone compared to wells treated with a known inhibitor.

[2] = biological target: human TLR8 (Homo sapiens (Human), UniProt Q9NR97); test: TLR8 inhibition reporter assay (HEK-Blue, SEAP); conditions: HEK-Blue cells overexpressing human TLR8, R848 15.9 μM stimulation
Sequence of human TLR8 (Q9NR97 27-1041): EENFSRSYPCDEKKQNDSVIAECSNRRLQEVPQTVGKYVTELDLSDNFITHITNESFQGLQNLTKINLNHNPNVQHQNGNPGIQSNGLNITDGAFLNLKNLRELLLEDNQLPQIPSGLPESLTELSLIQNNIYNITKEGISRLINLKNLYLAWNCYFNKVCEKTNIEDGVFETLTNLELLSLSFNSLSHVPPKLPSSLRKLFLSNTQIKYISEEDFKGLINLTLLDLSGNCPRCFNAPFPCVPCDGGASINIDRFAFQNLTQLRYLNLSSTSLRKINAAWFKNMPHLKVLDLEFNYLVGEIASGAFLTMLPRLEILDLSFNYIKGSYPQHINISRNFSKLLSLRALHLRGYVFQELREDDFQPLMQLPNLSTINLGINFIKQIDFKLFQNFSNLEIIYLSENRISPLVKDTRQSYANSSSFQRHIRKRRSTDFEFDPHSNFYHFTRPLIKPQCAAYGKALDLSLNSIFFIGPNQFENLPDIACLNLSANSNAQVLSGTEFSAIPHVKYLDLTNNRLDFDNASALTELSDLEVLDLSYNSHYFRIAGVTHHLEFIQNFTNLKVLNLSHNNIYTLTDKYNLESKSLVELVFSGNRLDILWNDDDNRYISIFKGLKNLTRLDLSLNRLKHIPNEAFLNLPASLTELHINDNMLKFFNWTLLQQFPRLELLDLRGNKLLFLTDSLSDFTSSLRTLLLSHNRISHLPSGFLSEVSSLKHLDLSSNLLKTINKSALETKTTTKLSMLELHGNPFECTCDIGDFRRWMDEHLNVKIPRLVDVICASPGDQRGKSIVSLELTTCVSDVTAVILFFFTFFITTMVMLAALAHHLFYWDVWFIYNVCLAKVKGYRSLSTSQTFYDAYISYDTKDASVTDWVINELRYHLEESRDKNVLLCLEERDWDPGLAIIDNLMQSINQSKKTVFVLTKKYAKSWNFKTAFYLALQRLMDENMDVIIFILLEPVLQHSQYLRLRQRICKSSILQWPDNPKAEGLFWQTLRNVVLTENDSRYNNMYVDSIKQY
Method: as §1, §2

[3] = biological target: human TLR9 (Homo sapiens (Human), UniProt Q9NR96); test: TLR9 inhibition reporter assay (HEK-Blue, SEAP); conditions: HEK-Blue cells overexpressing human TLR9, ODN2006 5 nM stimulation
Sequence of human TLR9 (Q9NR96 26-1032): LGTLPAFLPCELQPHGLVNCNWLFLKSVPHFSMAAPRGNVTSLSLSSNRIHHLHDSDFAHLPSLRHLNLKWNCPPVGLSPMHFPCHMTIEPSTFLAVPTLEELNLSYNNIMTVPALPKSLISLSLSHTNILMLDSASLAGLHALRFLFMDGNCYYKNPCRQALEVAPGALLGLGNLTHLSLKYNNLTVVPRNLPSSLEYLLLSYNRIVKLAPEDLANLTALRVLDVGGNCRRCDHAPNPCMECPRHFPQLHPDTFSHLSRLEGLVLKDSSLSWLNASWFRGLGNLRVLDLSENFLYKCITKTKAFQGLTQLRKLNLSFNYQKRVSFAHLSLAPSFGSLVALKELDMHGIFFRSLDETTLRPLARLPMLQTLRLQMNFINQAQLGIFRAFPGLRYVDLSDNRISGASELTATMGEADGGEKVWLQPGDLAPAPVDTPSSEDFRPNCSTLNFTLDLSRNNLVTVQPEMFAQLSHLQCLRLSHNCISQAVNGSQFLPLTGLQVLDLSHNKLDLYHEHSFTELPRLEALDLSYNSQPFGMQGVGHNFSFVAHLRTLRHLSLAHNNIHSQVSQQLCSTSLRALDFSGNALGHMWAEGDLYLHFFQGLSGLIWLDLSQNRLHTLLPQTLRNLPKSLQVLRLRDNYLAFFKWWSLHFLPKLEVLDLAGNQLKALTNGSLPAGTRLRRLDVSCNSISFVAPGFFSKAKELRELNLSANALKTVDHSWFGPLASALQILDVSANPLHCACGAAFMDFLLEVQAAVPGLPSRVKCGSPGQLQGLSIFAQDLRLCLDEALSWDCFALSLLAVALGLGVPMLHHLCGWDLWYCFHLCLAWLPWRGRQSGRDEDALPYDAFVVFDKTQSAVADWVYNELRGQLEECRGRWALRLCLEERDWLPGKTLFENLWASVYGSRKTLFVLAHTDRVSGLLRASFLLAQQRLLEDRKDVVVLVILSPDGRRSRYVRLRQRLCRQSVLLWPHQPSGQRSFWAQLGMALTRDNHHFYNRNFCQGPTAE
Method: as §1, §2

Sequence of human TLR7 (Q9NYK1 27-1049): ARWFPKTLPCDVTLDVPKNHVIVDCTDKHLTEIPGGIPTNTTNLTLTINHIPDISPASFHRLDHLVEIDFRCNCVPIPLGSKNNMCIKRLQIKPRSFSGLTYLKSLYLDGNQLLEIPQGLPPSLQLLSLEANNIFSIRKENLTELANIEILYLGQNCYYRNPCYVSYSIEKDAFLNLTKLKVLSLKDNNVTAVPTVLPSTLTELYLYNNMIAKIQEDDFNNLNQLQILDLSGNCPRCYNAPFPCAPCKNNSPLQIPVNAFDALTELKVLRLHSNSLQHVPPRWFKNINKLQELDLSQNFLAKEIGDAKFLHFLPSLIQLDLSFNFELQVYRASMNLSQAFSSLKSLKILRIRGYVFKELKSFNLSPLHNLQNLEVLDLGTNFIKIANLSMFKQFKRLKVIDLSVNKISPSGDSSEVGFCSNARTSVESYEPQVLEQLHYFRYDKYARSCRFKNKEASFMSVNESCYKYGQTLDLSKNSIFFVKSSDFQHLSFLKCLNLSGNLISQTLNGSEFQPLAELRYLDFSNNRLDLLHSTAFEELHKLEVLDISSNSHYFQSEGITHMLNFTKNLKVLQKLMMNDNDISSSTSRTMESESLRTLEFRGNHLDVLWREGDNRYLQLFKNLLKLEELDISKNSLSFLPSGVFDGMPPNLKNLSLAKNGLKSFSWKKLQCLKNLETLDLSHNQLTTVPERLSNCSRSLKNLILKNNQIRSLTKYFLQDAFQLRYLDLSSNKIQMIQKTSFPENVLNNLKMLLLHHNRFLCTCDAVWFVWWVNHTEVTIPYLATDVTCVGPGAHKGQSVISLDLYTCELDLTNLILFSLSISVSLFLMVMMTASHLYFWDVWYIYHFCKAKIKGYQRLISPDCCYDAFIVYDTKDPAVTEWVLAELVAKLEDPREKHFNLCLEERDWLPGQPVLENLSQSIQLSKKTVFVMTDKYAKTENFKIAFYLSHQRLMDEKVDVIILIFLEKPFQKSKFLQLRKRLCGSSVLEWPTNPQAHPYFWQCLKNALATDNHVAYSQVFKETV

Row | Structure (SMILES) | IC50 [1] [nM] | IC50 [2] [nM] | IC50 [3] [nM]
1 | Cc1cc(-c2[nH]c3ccc(-c4cnc(C5CCNCC5)[nH]4)cc3c2C(C)C)ccn1 [Example 254, 3-isopropyl-2-(2-methylpyridin-4-yl)-5-(2-(piperidin-4-yl)-1H-imidazol-5-yl)-1H-indole] | 88 | 77 | 1210
2 | Cc1cc(-c2[nH]c3ccc(-c4nnc(C5CCCN(C(C)C)C5)[nH]4)cc3c2C(C)C)cc(C)n1 (stereo not drawn) [Example 357, 2-(2,6-dimethylpyridin-4-yl)-3-isopropyl-5-(5-(1-isopropylpiperidin-3-yl)-4H-1,2,4-triazol-3-yl)-1H-indole] | 4.4 | 1.4 | 205
3 | COc1ccc(-c2[nH]c3ccc(-c4nnc(N5CCNCC5)o4)cc3c2C(C)C)cc1OC [Example 105, 2-(2-(3,4-dimethoxyphenyl)-3-isopropyl-1H-indol-5-yl)-5-(piperazin-1-yl)-1,3,4-oxadiazole] | 19 | 8.8 | 1070
4 | CC(C)CN1CCC(NC(=O)c2nnc(-c3ccc4[nH]c(-c5ccnc6[nH]ncc56)c(C(C)C)c4c3)o2)CC1 [Example 214, N-(1-isobutylpiperidin-4-yl)-5-(3-isopropyl-2-(1H-pyrazolo[3,4-b]pyridin-4-yl)-1H-indol-5-yl)-1,3,4-oxadiazole-2-carboxamide] | 203 | 4.4 | 686
5 | COc1ccc(-c2[nH]c3ccc(-c4cccc(C(=O)N5CC[C@@H](O)C5)c4)cc3c2CC(F)(F)F)cc1OC [Example 34, (R)-(3-(2-(3,4-dimethoxyphenyl)-3-(2,2,2-trifluoroethyl)-1H-indol-5-yl)phenyl)(3-hydroxypyrrolidin-1-yl)methanone] | 776 | 199 | 14700
6 | FC(F)Cc1c(-c2ccnc3[nH]ncc23)[nH]c2ccc(-c3nnc([C@@H]4CCCNC4)o3)cc12 [Example 243, (R)-2-(3-(2,2-difluoroethyl)-2-(1H-pyrazolo[3,4-b]pyridin-4-yl)-1H-indol-5-yl)-5-(piperidin-3-yl)-1,3,4-oxadiazole] | 2280 | 1300 | 3260
7 | CNCCc1nnc(-c2ccc3[nH]c(-c4ccc5ncnn5c4)c(C(C)C)c3c2)o1 [Example 226, 2-(5-(2-([1,2,4]triazolo[1,5-a]pyridin-6-yl)-3-isopropyl-1H-indol-5-yl)-1,3,4-oxadiazol-2-yl)-N-methylethan-1-amine] | 46 | 5.5 | 1080
8 | CNC(=O)CN1CCC(c2nnc(-c3ccc4[nH]c(-c5ccnc6[nH]ncc56)c(C(C)C)c4c3)o2)CC1 [Example 88, 2-(4-(5-(3-isopropyl-2-(1H-pyrazolo[3,4-b]pyridin-4-yl)-1H-indol-5-yl)-1,3,4-oxadiazol-2-yl)piperidin-1-yl)-N-methylacetamide] | 294 | 10 | 4760
9 | Cc1cc(-c2[nH]c3ccc(-c4nnc(C5CCN(C(=O)CN(C)C)CC5)o4)cc3c2C(C)C)ccn1 [Example 62, 2-(dimethylamino)-1-(4-(5-(3-isopropyl-2-(2-methylpyridin-4-yl)-1H-indol-5-yl)-1,3,4-oxadiazol-2-yl)piperidin-1-yl)ethan-1-one] | 31 | 2.2 | 743
10 | COc1ccc(-c2[nH]c3ccc(-c4ccc(N5CCCN(C)CC5)cc4)cc3c2C(C)C)cc1OC [Example 380, 2-(3,4-dimethoxyphenyl)-3-isopropyl-5-(4-(4-methyl-1,4-diazepan-1-yl)phenyl)-1H-indole] | 881 | 35 | 2920
11 | Cc1cc(-c2[nH]c3ccc(-c4nnc(C(=O)NC5CCN(C(C)C)CC5)o4)cc3c2C(C)C)ccn1 [Example 58, 5-(3-isopropyl-2-(2-methylpyridin-4-yl)-1H-indol-5-yl)-N-(1-isopropylpiperidin-4-yl)-1,3,4-oxadiazole-2-carboxamide] | 50 | 3.8 | 303
12 | Cc1cc(-c2[nH]c3ccc(-c4nnc(C5CCCN(CC(=O)N(C)C)C5)[nH]4)cc3c2C(C)C)ccn1 (stereo not drawn) [Example 180, 2-(3-(5-(3-isopropyl-2-(2-methylpyridin-4-yl)-1H-indol-5-yl)-4H-1,2,4-triazol-3-yl)piperidin-1-yl)-N,N-dimethylacetamide] | 31 | 2.2 | 872
13 | COc1ccc(-c2[nH]c3ccc(-c4nnc([C@H]5CCCNC5)o4)cc3c2C(C)C)cc1OC [Example 52, (S)-2-(2-(3,4-dimethoxyphenyl)-3-isopropyl-1H-indol-5-yl)-5-(piperidin-3-yl)-1,3,4-oxadiazole] | 26 | 6 | 770
14 | CCc1c(-c2ccnc(C)c2)[nH]c2ccc(-c3noc([C@H]4CCNC4)n3)cc12 [Example 455, (S)-3-(3-ethyl-2-(2-methylpyridin-4-yl)-1H-indol-5-yl)-5-(pyrrolidin-3-yl)-1,2,4-oxadiazole] | 2220 | 27 | 15900
15 | Cc1cc(-c2[nH]c3ccc(-c4nnc(C5CN6CCC5CC6)o4)cc3c2C(C)C)ccn1 (stereo not drawn) [Example 222, 2-(3-isopropyl-2-(2-methylpyridin-4-yl)-1H-indol-5-yl)-5-(quinuclidin-3-yl)-1,3,4-oxadiazole] | 34 | 3.2 | 1240
16 | Cc1cc(-c2[nH]c3ccc(-c4ccc(N)nc4)cc3c2C(C)C)ccn1 [Example 237, 5-(3-isopropyl-2-(2-methylpyridin-4-yl)-1H-indol-5-yl)pyridin-2-amine] | 30 | 2 | 9730
17 | Cc1cc(-c2[nH]c3ccc(-c4nnc(C(=O)N5CCC(NC(C)C)CC5)o4)cc3c2C(C)C)cc(C)n1 [Example 240, (5-(2-(2,6-dimethylpyridin-4-yl)-3-isopropyl-1H-indol-5-yl)-1,3,4-oxadiazol-2-yl)(4-(isopropylamino)piperidin-1-yl)methanone] | 39 | 7.5 | 367
18 | CC(=O)N1CCCN(Cc2nnc(-c3ccc4[nH]c(-c5ccnc6[nH]ncc56)c(C(C)C)c4c3)o2)CC1 [Example 155, 1-(4-((5-(3-isopropyl-2-(1H-pyrazolo[3,4-b]pyridin-4-yl)-1H-indol-5-yl)-1,3,4-oxadiazol-2-yl)methyl)-1,4-diazepan-1-yl)ethan-1-one] | 1420 | 127 | > 50000
19 | Cc1cc(-c2[nH]c3ccc(-c4nnc(C(=O)N5CCC(N)CC5)o4)cc3c2C(C)C)cc(C)n1 [Example 230, (4-aminopiperidin-1-yl)(5-(2-(2,6-dimethylpyridin-4-yl)-3-isopropyl-1H-indol-5-yl)-1,3,4-oxadiazol-2-yl)methanone] | 19 | 9.3 | 343
20 | Cc1cc(-c2[nH]c3ccc(-c4nc(C(=O)NCCN5CCCCC5)co4)cc3c2C(C)C)cc(C)n1 [Example 274, 2-(2-(2,6-dimethylpyridin-4-yl)-3-isopropyl-1H-indol-5-yl)-N-(2-(piperidin-1-yl)ethyl)oxazole-4-carboxamide] | 22 | 6.2 | 602
